Structures can show the parent of a compound that is named as a salt.
Assays:
[1] = system: malignant cells from B-cell chronic lymphocytic leukemia (B-CLL); conditions: in vitro; cited from earlier work
HCT-1 16 cells = assay: Anti-proliferative activity (Alamar Blue assay); type: cell-based; conditions: Homo sapiens, HCT-116, 72 hours
Procedure: The anti-proliferative activities of a compound can be determined by measuring the ability of the compound to inhibition of cell growth in a number of cell lines. Inhibition of cell growth is measured using the Alamar Blue assay (Nociari, M. M, Shalev, A., Benias, P., Russo, C. Journal of Immunological Methods 1998, 213, 157-167). The method is based on the ability of viable cells to reduce resazurin to its fluorescent product resorufin. For each proliferation assay cells are plated onto 96 well plates and allowed to recover for 16 hours prior to the addition of inhibitor compounds for a further 72 hours. At the end of the incubation period 10% (v/v) Alamar Blue is added and incubated for a further 6 hours prior to determination of fluorescent product at […]. In the case of the non-proliferating cell assay cells are maintained at confluence for 96 hour prior to the addition of inhibitor compounds for a further 72 hours. The number of viable cells is determined by Alamar Blue assay as before. Cell lines can be obtained from the ECACC (European Collection of cell Cultures).

[2] = Gravimetric Vapour Sorption (GVS) study; type: physicochemical
Procedure: (i) Gravimetric Vapour Sorption (GVS) studies were carried out to investigate the behaviour of the mesylate salt in conditions of varying humidity. The mesylate salt used in the studies was prepared from the hydrochloride salt (see Example 11) by the following method.
Samples of the mesylate salt produced by the method described above were run on a Hiden IGASorp moisture sorption analyser running CFRSorp software. The sample sizes were typically 10 mg. Moisture adsorption-desorption isotherms were performed as set out in the following table:
A double cycle was run using a sample of 12.92 mg of the mesylate salt. […] However, provided that the salt is not exposed to relative humidities of more than 80%, the water uptake is less than 2.6% w/w. Importantly, water which was taken up during the adsorption stage was lost during the desorption state indicating the uptake of water is a surface effect.

[3] = Stability trial of methanesulphonate salt at 40° C./75% relative humidity for six months; type: physicochemical
Procedure: Samples of the methanesulphonate salt of Example 1 were stored in sealed bags inside a sealed container at a temperature of 40° C. and in an atmosphere of 75% relative humidity for a period of six months. At periods of 1 month, 3 months and 6 months, various tests were carried out to determine whether any changes to the purity or physical state of the salt had occurred. The tests were as follows:
(a) Visual examination of the colour and physical appearance of the salt.
(b) Fourier Transform Infra Red (FTIR) spectroscopy—comparison with reference standard spectrum.
(c) Determination of melting point by differential scanning calorimetry (DSC).
(d) Determination of water content by a coulometric method using the coulometric reagent AKX.
(e) Analysis of impurities by HPLC.

[4] = Stability of acetate buffered salt solution (autoclaving, heating, freeze-thaw); type: physicochemical
Procedure: Autoclaving at 121° C. for 15 minutes, followed by heating the solution further at 40° C., 55° C. or 75° C. for 10-12 days, were carried out on the acetate buffered salt solution.

[5] = Solubility of the mesylate salt in aqueous solution at pH 1 to 11 (UV-Vis assay); type: physicochemical
Procedure: Solutions were prepared by titrating standard hydrochloric acid with dilute sodium hydroxide solution to a desired pH. […] These solutions were then used to assess the solubility of 4-(2,6-dichlorobenzoylamino)-1/i-pyrazole-3-carboxylic acid piperidin-4-ylamide methanesulphonate.
In each experiment, 150 mg of the methanesulphonate salt was weighed into a 5 ml clear vial and 3-4 ml of a solution of a given pH was added. […] In each case, the solution was then filtered through a 0.22 μm PVDF filter, the pH of the clear solution obtained was recorded, and the solution was assayed for methanesulphonate salt content using a UV-Vis spectrophotometer and standard solutions of the salt.

[6] = Solubility of the mesylate salt in buffered solutions (HPLC assay); type: physicochemical; conditions: acetate buffer, pH 4.6, aqueous buffer, thermodynamic from solid
Procedure: An investigation into the solubility of the mesylate salt of Example 1 in various buffering systems was carried out at ambient temperature and at 4° C. In a first set of experiments, the buffers selected were 200 mM succinate pH 5.5, citrate pH 5.5, and Tris/maleate pH 5.5, 6.5 and 7.5. A second set of buffers utilised included a 200 mM acetate pH 4.6, glycine/methanesulphonic acid pH 4.6 and glycine pH 5.5.
This buffer was prepared by dissolving 4.44 g sodium acetate in 200 ml water. A volume (50 ml) of this solution was titrated with 0.20 M acetic acid solution ([…] in 200 ml water) and made up to 200 ml with water. A 0.20 M acetate buffer solution of pH 4.6 was prepared.
With each pH and buffer system, two experiments were performed, one at ambient temperature and one at 4° C. In each experiment, to 4.0 ml buffer solution was added a nominal 220 mg of the mesylate salt and the solution mixture was stirred. The stirring was stopped after 3 hours, the solution filtered through a PVDF 0.22 μm membrane filter, diluted in sample diluent and assayed for mesylate salt content by HPLC. Throughout the experiments, the mesylate salt content of each sample was calculated using single point calibration each time.

[7] = Exposure at 40° C./approximately 75% relative humidity with XRPD and HPLC analysis; type: physicochemical; conditions: approximately 75% relative humidity
Procedure: (ii) In a separate test, approximately 10 mg of the mesylate salt as prepared above was pressed flat onto a glass slide to achieve a high surface area and placed in a dessicator containing a saturated aqueous solution of sodium chloride. This in turn was placed in an incubator held at 40° C. to provide an atmosphere of approximately 75% relative humidity. The sample was removed on 8 and 18 days and the XRPD profiles of the sample at these times were compared to the XRPD profile of the salt prior to commencement of the test.

[8] = 40° C./75% relative humidity, t = 0
[9] = 40° C./75% relative humidity, t = 1 month
[10] = 40° C./75% relative humidity, t = 3 months
[11] = 40° C./75% relative humidity, t = 6 months

CN1CC[C@H](c2c(O)cc(O)c3c(=O)cc(-c4ccccc4Cl)oc23)[C@H](O)C1 [Flavopiridol]
induction of apoptosis [1]: induce in vitro apoptosis

O=C(NC1CCNCC1)c1n[nH]cc1NC(=O)c1c(Cl)cccc1Cl [mesylate salt, 4-(2,6-dichlorobenzoylamino)-1H-pyrazole-3-carboxylic acid piperidin-4-ylamide methanesulphonate]
IC50 (HCT-1 16 cells): 110 nM
water uptake (GVS) ([2]; not exposed to relative humidities of more than 80%): less than 2.6 % w/w
water picked up (GVS isotherm) ([2]; over the range 0% relative humidity to 90% relative humidity): approximately 4 % in weight
overall stability ([3]; 40° C., 75% relative humidity, six months): good stability
(a) Description [3, 8]: Off-white solid
(b) Identity by FTIR [3, 8]: Conforms to
(c) Melting point by DSC, melting endotherm [3, 8]: 367.7 °C
(d) Water content [3, 8]: <0.1% w/w
(e) Impurities (by HPLC) Total impurities [3, 8]: 0.52% area
Chemical purity [3, 8]: 99.48% area
Impurity RRT 0.812 (by HPLC) [3, 8]: 0.07% area
Impurity RRT 1.196 (by HPLC) [3, 8]: 0.01% area
Impurity RRT 1.226 (by HPLC) [3, 8]: 0.02% area
Impurity RRT 1.303 (by HPLC) [3, 8]: 0.02% area
Impurity RRT 1.318 (by HPLC) [3, 8]: 0.03% area
Impurity RRT 1.484 (by HPLC) [3, 8]: 0.15% area
Impurity RRT 1.526 (by HPLC) [3, 8]: 0.03% area
Impurity RRT 1.680 (by HPLC) [3, 8]: 0.19% area
(a) Description [3, 9]: Off-white solid
(b) Identity by FTIR [3, 9]: Conforms to
(c) Melting point by DSC, melting endotherm [3, 9]: 368.3 °C
(d) Water content [3, 9]: <0.1% w/w
(e) Impurities (by HPLC) Total impurities [3, 9]: 0.49% area
Chemical purity [3, 9]: 99.51% area
Impurity RRT 0.812 (by HPLC) [3, 9]: 0.07% area
Impurity RRT 1.196 (by HPLC) [3, 9]: 0.02% area
Impurity RRT 1.303 (by HPLC) [3, 9]: 0.06% area
Impurity RRT 1.484 (by HPLC) [3, 9]: 0.17% area
Impurity RRT 1.680 (by HPLC) [3, 9]: 0.17% area
(a) Description [3, 10]: Off-white solid
(b) Identity by FTIR [3, 10]: Conforms to
(c) Melting point by DSC, melting endotherm [3, 10]: 375.5 °C
(d) Water content [3, 10]: <0.1% w/w
(e) Impurities (by HPLC) Total impurities [3, 10]: 0.50% area
Chemical purity [3, 10]: 99.50% area
Impurity RRT 0.812 (by HPLC) [3, 10]: 0.06% area
Impurity RRT 1.226 (by HPLC) [3, 10]: 0.02% area
Impurity RRT 1.318 (by HPLC) [3, 10]: 0.04% area
Impurity RRT 1.484 (by HPLC) [3, 10]: 0.17% area
Impurity RRT 1.526 (by HPLC) [3, 10]: 0.04% area
Impurity RRT 1.680 (by HPLC) [3, 10]: 0.17% area
(a) Description [3, 11]: Off-white solid
(b) Identity by FTIR [3, 11]: Conforms to
(c) Melting point by DSC, melting endotherm [3, 11]: 369.1 °C
(d) Water content [3, 11]: <0.1% w/w
(e) Impurities (by HPLC) Total impurities [3, 11]: 0.50% area
Chemical purity [3, 11]: 99.50% area
Impurity RRT 0.812 (by HPLC) [3, 11]: 0.06% area
Impurity RRT 1.226 (by HPLC) [3, 11]: 0.02% area
Impurity RRT 1.318 (by HPLC) [3, 11]: 0.04% area
Impurity RRT 1.484 (by HPLC) [3, 11]: 0.17% area
Impurity RRT 1.526 (by HPLC) [3, 11]: 0.03% area
Impurity RRT 1.680 (by HPLC) [3, 11]: 0.17% area
Impurity RRT 1.682 (by HPLC) [3, 11]: 0.01% area
precipitation in freeze-thaw stability tests ([4]; acetate buffered salt solution): did not result in precipitation
stability of solution pH and salt in freeze-thaw tests ([4]; acetate buffered salt solution): stable
stability of solution pH and salt ([4]; acetate buffered solution, autoclaving at 121° C. for 15 minutes, then 40° C., 55° C. or 75° C. for 10-12 days): stable
solubility at 3 h ([5]; aqueous solution, 4 °C, pH 0.26, simulated gastric fluid, thermodynamic from solid, initial pH 0.26, final pH 0.26): 9.85 mg/mL
solubility at 3 h ([5]; aqueous solution, 4 °C, pH 1, simulated gastric fluid, thermodynamic from solid, initial pH 1.00, final pH 1.00): 39.4 mg/mL
solubility at 3 h ([5]; aqueous solution, 4 °C, pH 2.51, aqueous buffer, thermodynamic from solid, initial pH 2.51, final pH 2.51): 41.5 mg/mL
solubility at 3 h ([5]; aqueous solution, 4 °C, pH 4.99, aqueous buffer, thermodynamic from solid, initial pH 4.99, final pH 4.99): 42.4 mg/mL
solubility at 3 h ([5]; aqueous solution, 4 °C, pH 7.34, aqueous buffer, thermodynamic from solid, initial pH 7.34, final pH 7.34): 45.9 mg/mL
solubility at 3 h ([5]; aqueous solution, 4 °C, pH 7.4, aqueous buffer, thermodynamic from solid, initial pH 9.04, final pH 7.40): 30.4 mg/mL
solubility at 3 h ([5]; aqueous solution, 4 °C, pH 7.69, aqueous buffer, thermodynamic from solid, initial pH 7.69, final pH 7.69): 37.9 mg/mL
solubility at 3 h ([5]; aqueous solution, 4 °C, pH 7.9, aqueous buffer, thermodynamic from solid, initial pH 10.97, final pH 7.90): 30.9 mg/mL
solubility at 3 h ([5]; aqueous solution, 4 °C, pH 8.17, aqueous buffer, thermodynamic from solid, initial pH 8.17, final pH 8.17): 43.2 mg/mL
solubility at 3 h ([5]; aqueous solution, pH 0.37, simulated gastric fluid, thermodynamic from solid, ambient temperature, initial pH 0.26, final pH 0.37): 15.7 mg/mL
solubility at 6 days ([5]; aqueous solution, pH 0.504, simulated gastric fluid, thermodynamic from solid, Solution 1 after 6 days in the laboratory, precipitate filtered, pH 0.504 / 0.50): 13.9 mg/mL
solubility at 3 h ([5]; aqueous solution, pH 1.06, simulated gastric fluid, thermodynamic from solid, ambient temperature, initial pH 1.00, final pH 1.06): 40.3 mg/mL
solubility at 3 h ([5]; aqueous solution, pH 3, aqueous buffer, thermodynamic from solid, ambient temperature, initial pH 2.51, final pH 3.00): 44.9 mg/mL
solubility at 3 h ([5]; aqueous solution, pH 6.73, aqueous buffer, thermodynamic from solid, ambient temperature, initial pH 4.99, final pH 6.73): 44.3 mg/mL
solubility at 3 h ([5]; aqueous solution, pH 7.3, aqueous buffer, thermodynamic from solid, ambient temperature, initial pH 7.34, final pH 7.30): 44.5 mg/mL
solubility at 3 h ([5]; aqueous solution, pH 7.4, aqueous buffer, thermodynamic from solid, ambient temperature, initial pH 8.17, final pH 7.40): 44.5 mg/mL
solubility at 3 h ([5]; aqueous solution, pH 7.4, aqueous buffer, thermodynamic from solid, ambient temperature, initial pH 9.04, final pH 7.4): 35.4 mg/mL
solubility at 3 h ([5]; aqueous solution, pH 7.6, aqueous buffer, thermodynamic from solid, ambient temperature, initial pH 10.97, final pH 7.6): 34.6 mg/mL
solubility at 3 h ([5]; aqueous solution, pH 7.9, aqueous buffer, thermodynamic from solid, ambient temperature, initial pH 7.69, final pH 7.90): 42.1 mg/mL
behaviour of solution on standing ([5]; pH>7 and pH<3, ambient temperature): precipitation of the salt was observed on standing
solubility at 3 h ([6]; 4 °C, acetate buffer 200 mM at 4° C., initial pH 4.6, final pH 4.6, read-out: [mesylate salt] solubility): 37.2 mg/mL
solubility at 3 h ([6]; acetate buffer 200 mM at ambient temperature, initial pH 4.6, final pH 4.5, read-out: [Mesylate salt] solubility): 30.7 mg/mL
solubility at 3 h ([6]; acetic acid/sodium acetate buffer, solution pH approximately 4.6, read-out: solubility): ~35 mg/mL
solubility at 3 h ([6]; in acetate buffer, read-out: solubility of the mesylate salt): 32 to 37 mg/mL
changes in XRPD profile ([7]; 8 and 18 days): No changes were observed
degradation by HPLC analysis ([7]; up to 18 days): no degradation

Source: patent US8013163B2 (Astex Therapeutics Limited, priority 2005, dated 2011)
